The target in assay [1] is T1, 5HT1A receptors (Rattus norvegicus, UniProt P19327).
T1 sequence (P19327 1-422): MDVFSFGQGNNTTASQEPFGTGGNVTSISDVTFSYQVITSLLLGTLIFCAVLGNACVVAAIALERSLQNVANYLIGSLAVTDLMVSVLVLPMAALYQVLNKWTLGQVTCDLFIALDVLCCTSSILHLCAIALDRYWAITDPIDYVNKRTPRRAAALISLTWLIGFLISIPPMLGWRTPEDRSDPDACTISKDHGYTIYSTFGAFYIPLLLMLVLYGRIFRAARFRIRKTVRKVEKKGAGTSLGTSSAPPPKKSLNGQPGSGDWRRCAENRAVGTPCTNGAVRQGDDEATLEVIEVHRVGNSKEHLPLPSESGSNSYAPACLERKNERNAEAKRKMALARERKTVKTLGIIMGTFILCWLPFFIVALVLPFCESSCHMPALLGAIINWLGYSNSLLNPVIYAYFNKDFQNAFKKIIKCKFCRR
Nature of the assay: Flat body posture (FBP), agonist (alone) and antagonist (vs 8-OH-DPAT). The settings on record: for ED50: rat, sc. Details: from tissue; host or cells: whole living male Wistar rats (endogenous receptor). The format is in vivo, rat (male Wistar). How it is done:
(§1) The tests were carried out using male Wistar rats weighing 200 to 220 g having free access to their food and to their drinking water in standard cages.
The animals are isolated individually for the tests for hypothermia, corticosterone secretion and flat body posture, or combined in groups of three for the tailflick test.
The compounds to be studied were administered by the subcutaneous route (s.c.) 60 minutes before the beginning of the test, that is to say 30 minutes before the solvent (agonist responses) or the 8-OH-DPAT (antagonist responses).
In all of the tests the solvent is used in parallel as a control. The animals were left to rest in their cage during the period between the injections and the evaluation. For the agonist studies, the solvent was administered at 1 ml/kg s.c. 30 minutes before the beginning of the test. For the antagonist studies, doses of 8-OH-DPAT that induce sub-maximal responses were chosen, that is doses of 0.63, 0.16, 0.16 and 0.16 mg/kg s.c. for, respectively, the tail flick test, flat body posture test, corticosterone secretion test and hypothermia test.
The same animals were used to evaluate the influence of the compounds studied on FBP and on the determination of the plasma concentration of CS. All of the tests were carried out in the morning between 10.30 and 12.300 that is to say when the circadian levels of CS are lowest.
25 minutes after the treatment (that is to say 5 minutes before decapitation) the animals are observed in their cages and the presence or absence of FBP is noted.
The presence of FBP is defined by a characteristic posture of the animal. That posture is in the ventral decubitus position with the posterior limbs clearly extended. 5 minutes after the observation of FBP, the animals are decapitated and the blood from the trunk is collected in cooled tubes containing 50 μl of a 10% EDTA solution. After centrifugation at 4000 revs/min, the plasma is removed and stored at -30° C. until determination.
In general, after variance analysis, the results are subjected to the Dunett test. The results are taken as significant if p <0.05.
For the dose-response for the induction and inhibition of FBP, the ED50 values (doses at which 50% of the animals show a response) were calculated by the Litchfield and Wilcoxon method.
(§2) The doses of the compounds tested are all expressed in base terms. Unless specified otherwise, all of the compounds were dissolved in sterile water (to which if necessary a few drops of lactic acid were added) and administered at a volume of 1 ml/kg s.c.

Assay [2] addresses T1, 5HT1A receptors. Nature of the assay: Drug discrimination (DD) 8-OH-DPAT. The format is in vivo, rat (male Wistar). Set-up: from tissue; host or cells: whole living male Wistar rats (endogenous receptor). The settings on record: for ED50: rat, sc, rats trained on 8-OH-DPAT 0.31 mg/kg. How it is done:
as §1
Male rats are maintained at 85% of their normal body weight by means of food restriction. In soundproofed chambers the animals are trained to press a pedal to obtain food according to an FR10 procedure (Fixed Ratio 10; the food is supplied to the rat when it has pressed the lever 10 times).
Daily sessions of 15 minutes are preceded by an injection of solvent or of the training drug (0.31 mg/kg of 8-OH-DPAT, j.p.). The animal receives a pellet of food after pressing 10 times on the "solvent" or "drug" pedal according to the compound administered before the session.
After the learning period the animals are tested twice a week (Wednesday and Friday). On the other three days training sessions are carried out.
On the training days the rats are given either solvent or 8-OH-DPAT 15 minutes before being tested.
On the test days the rats receive the chemical substance 60 minutes before the session.
The capacity of the chemical substance administered to induce a response (pressing on the "solvent" or "drug" (8-OH-DPAT ) lever ) is recorded.
7 animals chosen at random are used for each substance and for each dose. During the test period, the lever on which the rat first presses 10 times is determined as the lever chosen--a food pellet is then delivered. That selected lever will be reinforced by the delivery of food up to the end of the test session. The percentage of animals selecting the "drug" lever at a particular dose is calculated. In addition, the total number of responses carried out on the two levers is expressed as a percentage of the number of responses carried out on the "solvent" lever obtained on the occasion of a preceding training session.
as §2

Turning to `c1cc2c(c(N3CCN(CCCc4ccsc4)CC3)c1)OCCO2` [Example 1, 4-(Benzodioxan-5-yl)-1-[3-(thiophen-3-yl)propyl]piperazine], the ED50 was over 10 mg/kg in assay [1] (agonist test, compound alone s.c., read-out: FBP ED50 (95% CL) alone); 0.48 mg/kg in assay [1] (antagonist test, s.c., vs 8-OH-DPAT 0.16 mg/kg s.c., read-out: FBP ID50 (95% CL) + DPAT); 0.63 mg/kg in assay [2] (antagonist, vs 8-OH-DPAT, read-out: DD 8-OH-DPAT ID50 (95% CL) + DPAT); over 2.5 mg/kg in assay [2] (compound alone, 60 min before session, read-out: DD 8-OH-DPAT ED50 (95% CL) alone). Further, the “% MPA (% maximum possible antagonism), FBP” value in assay [1] (vs 8-OH-DPAT 0.16 mg/kg s.c.) came to 100%. Also, in assay [2] (vs 8-OH-DPAT), the “% MPA (% maximum possible antagonism), DD” value was 100%.

For the origin of these results see US5464834A, “N-substituted N'-heterobicyclic piperazines having pharmaceutical activity” (Adir et Compagnie, priority 1992, dated 1995).
